Read-outs that look alike come from different tables or passages of the source.
Assays:
[1] = DPPH radical scavenging; conditions: phenolic compounds and metabolites; IC50 ± SD
Experimental: Scavenging activity towards the DPPH radical was carried out as previously described. Test substances were dissolved in DMSO or water. Values were corrected for absorbance of the test substances.

[2] = target: T1, xanthine oxidase from bovine milk (Bos taurus, UniProt P80457); experiment: Inhibition of xanthine oxidase; format: biochemical; conditions: for IC50: phenolic compounds and metabolites, IC50 ± SD, read-out: XO IC50; for XO inhibition (in words): up to highest concentration tested (167 µM)
T1 construct: xanthine oxidase from bovine milk; purchased Sigma-Aldrich (St. Louis, MO, USA); host or cells: bovine milk
T1 sequence (P80457 whole entry): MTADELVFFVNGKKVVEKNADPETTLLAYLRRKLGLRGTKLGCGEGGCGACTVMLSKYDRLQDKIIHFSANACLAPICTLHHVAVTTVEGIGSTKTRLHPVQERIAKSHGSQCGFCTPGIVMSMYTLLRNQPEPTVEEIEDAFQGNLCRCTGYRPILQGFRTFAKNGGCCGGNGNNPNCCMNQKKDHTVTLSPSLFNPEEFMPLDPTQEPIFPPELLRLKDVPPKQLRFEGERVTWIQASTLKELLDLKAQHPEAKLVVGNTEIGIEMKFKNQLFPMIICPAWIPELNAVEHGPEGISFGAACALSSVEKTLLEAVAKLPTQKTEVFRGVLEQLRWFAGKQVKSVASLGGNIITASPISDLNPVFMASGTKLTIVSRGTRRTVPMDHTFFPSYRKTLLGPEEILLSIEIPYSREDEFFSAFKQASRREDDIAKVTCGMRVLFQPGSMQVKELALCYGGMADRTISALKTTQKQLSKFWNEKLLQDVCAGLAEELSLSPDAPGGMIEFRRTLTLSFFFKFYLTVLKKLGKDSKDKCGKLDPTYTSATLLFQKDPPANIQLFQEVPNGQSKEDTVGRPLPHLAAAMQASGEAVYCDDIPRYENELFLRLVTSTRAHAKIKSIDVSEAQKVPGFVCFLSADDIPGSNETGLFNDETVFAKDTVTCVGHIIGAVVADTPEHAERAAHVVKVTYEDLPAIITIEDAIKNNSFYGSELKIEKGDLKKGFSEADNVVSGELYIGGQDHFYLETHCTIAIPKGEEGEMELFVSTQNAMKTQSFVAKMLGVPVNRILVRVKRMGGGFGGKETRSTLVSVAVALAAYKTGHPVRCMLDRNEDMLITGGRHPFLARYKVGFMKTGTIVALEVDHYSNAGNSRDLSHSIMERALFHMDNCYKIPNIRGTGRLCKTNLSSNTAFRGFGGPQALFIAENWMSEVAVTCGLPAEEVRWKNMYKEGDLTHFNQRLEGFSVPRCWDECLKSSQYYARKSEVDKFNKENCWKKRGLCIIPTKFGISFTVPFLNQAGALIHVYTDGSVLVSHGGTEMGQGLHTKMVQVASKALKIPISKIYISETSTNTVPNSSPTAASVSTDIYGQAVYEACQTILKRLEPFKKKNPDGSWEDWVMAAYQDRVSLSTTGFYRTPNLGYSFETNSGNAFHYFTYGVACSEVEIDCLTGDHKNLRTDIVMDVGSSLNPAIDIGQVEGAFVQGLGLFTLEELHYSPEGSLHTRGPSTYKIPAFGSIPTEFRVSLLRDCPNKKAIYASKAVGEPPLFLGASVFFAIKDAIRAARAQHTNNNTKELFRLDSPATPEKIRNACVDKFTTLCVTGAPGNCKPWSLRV
Experimental: The XO inhibitory activity with hypoxanthine as the substrate was carried out previously described. Test substances were dissolved in DMSO or water.

[3] = target: T2, Porcine pancreatic α-amylase (Sus scrofa, UniProt P00690); experiment: α-Amylase inhibitory activity; format: biochemical; conditions: phenolic compounds and metabolites; IC50 ± SD
T2 construct: purchased Sigma-Aldrich Chemie GmbH
T2 sequence (P00690 16-511): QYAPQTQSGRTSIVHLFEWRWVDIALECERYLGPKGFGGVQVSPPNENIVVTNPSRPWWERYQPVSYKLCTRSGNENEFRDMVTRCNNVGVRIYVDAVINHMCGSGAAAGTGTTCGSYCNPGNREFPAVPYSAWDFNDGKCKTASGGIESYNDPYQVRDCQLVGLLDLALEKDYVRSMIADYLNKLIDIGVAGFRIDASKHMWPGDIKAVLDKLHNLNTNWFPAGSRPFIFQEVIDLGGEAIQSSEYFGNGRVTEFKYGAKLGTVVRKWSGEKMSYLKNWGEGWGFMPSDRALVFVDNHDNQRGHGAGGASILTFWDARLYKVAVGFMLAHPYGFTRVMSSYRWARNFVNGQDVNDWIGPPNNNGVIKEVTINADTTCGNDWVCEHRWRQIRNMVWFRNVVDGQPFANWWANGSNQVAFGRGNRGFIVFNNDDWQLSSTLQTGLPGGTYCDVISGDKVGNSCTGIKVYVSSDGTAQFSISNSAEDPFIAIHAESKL
Experimental: The α-amylase assay was performed as described by Gella, et al.. Porcine pancreatic α-amylase (EC 3.2.1.1) was purchased from Sigma-Aldrich Chemie GmbH.

[4] = target: T3, Baker's yeast α-glucosidase (Saccharomyces cerevisiae, UniProt P53341); experiment: biochemical; conditions: IC50 ± SD
T3 construct: purchased Sigma-Aldrich Chemie GmbH (Steinheim, Germany)
T3 sequence (P53341 whole entry): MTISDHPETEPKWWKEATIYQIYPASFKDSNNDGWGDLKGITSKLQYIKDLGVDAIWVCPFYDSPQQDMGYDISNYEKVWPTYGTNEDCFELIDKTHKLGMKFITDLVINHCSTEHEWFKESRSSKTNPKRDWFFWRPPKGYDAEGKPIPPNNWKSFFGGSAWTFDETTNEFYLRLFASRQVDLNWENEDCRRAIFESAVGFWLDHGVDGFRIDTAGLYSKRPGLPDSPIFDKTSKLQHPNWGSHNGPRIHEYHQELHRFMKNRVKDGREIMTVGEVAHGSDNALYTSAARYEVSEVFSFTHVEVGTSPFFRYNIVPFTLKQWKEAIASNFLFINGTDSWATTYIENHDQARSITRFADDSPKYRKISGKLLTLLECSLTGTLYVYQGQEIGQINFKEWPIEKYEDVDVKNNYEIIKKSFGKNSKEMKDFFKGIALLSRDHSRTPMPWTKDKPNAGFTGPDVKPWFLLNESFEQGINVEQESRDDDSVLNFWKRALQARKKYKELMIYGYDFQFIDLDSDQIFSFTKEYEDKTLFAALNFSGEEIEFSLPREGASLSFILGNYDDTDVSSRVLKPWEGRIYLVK
Experimental: The α-glucosidase inhibitory activity of the extracts was assessed according to the method described by Ranilla, et al.. Baker’s yeast α-glucosidase (EC 3.2.1.20) was purchased from Sigma-Aldrich Chemie GmbH (Steinheim, Germany).

[5] = target: T4, 15-lipoxygenase (15-LO) from soybeans (Glycine max, UniProt P08170); experiment: Inhibition of 15-lipoxygenase; format: biochemical, soybean; conditions: phenolic compounds and metabolites; IC50 ± SD; read-out: 15-LO IC50
T4 construct: 15-lipoxygenase (15-LO) from soybeans; purchased Sigma-Aldrich (St. Louis, MO, USA); host or cells: soybeans
T4 sequence (P08170 1-839): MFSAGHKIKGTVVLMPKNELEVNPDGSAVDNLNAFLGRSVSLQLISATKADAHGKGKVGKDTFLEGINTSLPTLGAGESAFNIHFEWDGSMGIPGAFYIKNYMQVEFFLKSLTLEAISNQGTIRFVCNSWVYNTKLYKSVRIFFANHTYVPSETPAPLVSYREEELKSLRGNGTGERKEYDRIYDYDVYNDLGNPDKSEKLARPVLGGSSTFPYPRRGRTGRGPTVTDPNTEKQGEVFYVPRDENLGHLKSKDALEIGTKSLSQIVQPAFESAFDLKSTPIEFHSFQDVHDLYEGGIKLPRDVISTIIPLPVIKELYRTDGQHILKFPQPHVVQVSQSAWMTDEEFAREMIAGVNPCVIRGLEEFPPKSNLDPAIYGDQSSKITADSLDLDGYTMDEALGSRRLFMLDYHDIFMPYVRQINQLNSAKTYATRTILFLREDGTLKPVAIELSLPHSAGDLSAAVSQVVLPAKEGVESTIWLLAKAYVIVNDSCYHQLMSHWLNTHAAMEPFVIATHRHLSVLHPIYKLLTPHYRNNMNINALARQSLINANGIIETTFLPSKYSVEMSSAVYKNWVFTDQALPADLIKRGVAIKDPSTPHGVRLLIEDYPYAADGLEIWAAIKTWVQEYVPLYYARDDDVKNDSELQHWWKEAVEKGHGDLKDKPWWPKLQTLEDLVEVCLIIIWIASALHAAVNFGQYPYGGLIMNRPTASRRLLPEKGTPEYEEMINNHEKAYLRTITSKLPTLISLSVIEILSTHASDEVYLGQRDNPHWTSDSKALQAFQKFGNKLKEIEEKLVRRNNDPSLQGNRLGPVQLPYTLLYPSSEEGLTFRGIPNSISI
Experimental: Test substances were dissolved in DMSO or water, and the assay was carried out as previously described.

[6] = test system: human skeletal muscle cells; experiment: Oleic acid uptake in human myotubes ([14C]-oleic acid); format: cell-based; conditions: for increase in oleic acid uptake: 10 µM (highest concentration tested), 2 days, vs 0.1% DMSO control
Experimental: Figure 3 Effects of elderflower extracts, constituents and metabolites on oleic acid uptake in human myotubes. Myotubes were treated with (A) 12.5, 25 and 50 µg/mL of different crude extracts; (B,C) 0.1, 1 and 10 µM of elderflower phenolic compounds and metabolites for 2 days. Thereafter, the cells were exposed to [^14C]-oleic acid (37 kBq, 100 µM) for 4 h as described in Materials and Methods. A synthetic liver X receptor (LXR) agonist T0901317 (10 μM) was used as positive control. The figures show [^14C]-oleic acid uptake given as means ± SEM (n = 3) from separate experiments. * p < 0.05 vs. control (0.1% DMSO).
(§1) Satellite cells were isolated from the Musculus obliquus internus abdominis of four healthy donors, age 34.8 (±19) years, body mass index 22.9 (±2.7) kg/m^2, fasting glucose 4.9 (±0.6) mM, insulin, plasma lipids and blood pressure within normal range and no family history of diabetes. The muscle biopsies were obtained with informed consent and approval by the National Committee for Research Ethics (Oslo, Norway). The cells were cultured on 96-well CellBIND microplates DMEM-Glutamax (5.5 mM glucose), 2% fetal bovine serum, 2% Ultroser G, penicillin (100 units/mL), streptomycin (100 μg/mL) and amphotericin B (1.25 μg/mL) for proliferation. At 70%–80% confluence, the growth medium was replaced by DMEM-Glutamax (5.5 mM glucose) supplemented with 2% fetal bovine serum, penicillin (100 units/mL), streptomycin (100 μg/mL), amphotericin B (1.25 μg/mL) and insulin (25 pM), to induce differentiation. The cells were cultured in humidified 5% CO2 atmosphere at 37 °C, and the medium was changed every 2–3 days. Experiments were performed after 7 days of differentiation. 22-S-hydroxycholesterol (22-SHC) (10 µM) was used as positive control in the glucose uptake assay. The positive control used in the oleic acid assay is the synthetic liver X receptor (LXR) agonist T0901317 (10 µm).
(§2) Cells were exposed to test samples solved in 0.1% DMSO that were added directly to the medium for 2 days for myotubes and 24 h for HepG2 cells. Thereafter, cells were exposed to [^14C(U)]-glucose (1 μCi/mL, 100 μM) or [^14C]-oleic acid (37 kBq, 100 µM) for 4 h. A 96-well UniFilter-96 GF7B microplate (Perkin Elmer, Waltham, MA, USA) was mounted on top of the CellBIND plate (Corning Life-Sciences (Schiphol-Rijk, The Netherlands) and CO2 production was measured. After incubation the cells were washed twice with ice-cold phosphate buffered saline (PBS), lysed in 0.1 M NaOH, and radioactivity measured by liquid scintillation counting. The protein content of each sample was determined and glucose uptake was calculated using protein levels for standardization.

[7] = test system: human skeletal muscle cells; experiment: Glucose uptake in human myotubes ([14C(U)]-glucose); format: cell-based
Experimental: Figure 2 Effects of elderflower extracts, constituents and metabolites on glucose uptake in human myotubes. Myotubes were treated with (A) 12.5, 25 and 50 µg/mL of different crude extracts; (B,C) 0.1, 1 and 10 µM of elderflower phenolic compounds and metabolites for 2 days. Thereafter, the cells were exposed to [^14C(U)]-glucose (1 μCi/mL, 100 μM) for 4 h as described in the Materials and Methods section. 22-S-hydroxycholesterol (22-SHC) (10 μM) was used as positive control. The figures show [^14C(U)]-glucose uptake given as means ± standard error of the mean (SEM) (n = 3) from separate experiments. * p < 0.05 vs. control (0.1% dimethyl sulfoxide (DMSO)).
as §1, §2

[8] = phenolic compounds and metabolites, read-out: α-Glucosidase IC50
[9] = α-Glucosidase IC50, phenolic compounds and metabolites

SMILES	IC50 [1] [µM]	IC50 [2] [µM]	XO inhibition (in words) [2]	IC50 [3] [µM]	IC50 [4, 8] [µM]	IC50 [5] [µM]	increase in oleic acid uptake [6]	IC50 [4, 9] [µM]	oleic acid uptake (in words) ([6]; 10 µM)	glucose uptake (in words) ([7]; 10 µM (highest concentration tested))	increase in glucose uptake ([7]; 10 µM, 2 days, vs 0.1% DMSO control, mean ± SEM)
Oc1cc(O)c2c(c1)O[C@H](c1ccc(O)c(O)c1)[C@H](O)C2 [Epicatechin]	15.6 ± 2.3	> 167	did not inhibit	9.7 ± 2.1	12.1 ± 2.3	116 ± 7.9	–	–	–	–	–
CC1OC(Oc2c(-c3ccc(O)c(O)c3)oc3cc(O)cc(O)c3c2=O)C(O)C(O)C1O (stereo not shown) [Quercetin-3-rhamnoside]	19.1 ± 2.1	105 ± 4.6	–	3.5 ± 0.9	–	108 ± 4.6	5.0% ± 6.0%	3.9 ± 1.4	–	–	–
O=c1c(OC2OC(CO)C(O)C(O)C2O)c(-c2ccc(O)c(O)c2)oc2cc(O)cc(O)c12 (stereo not shown) [Quercetin-3-glucoside]	17.6 ± 3.2	106 ± 5.3	–	3 ± 1.2	–	–	13.1% ± 3.5%	4.1 ± 1.9	–	–	–
O=C(O)Cc1cccc(O)c1 [3-Hydroxyphenylacetic acid]	125 ± 4.8	> 167	inactive	44.8 ± 5.3	68.9 ± 3.8	134 ± 5.8	–	–	small but significant increase	small increase	–
COc1cc(-c2oc3cc(O)cc(O)c3c(=O)c2OC2OC(COC3OC(C)C(O)C(O)C3O)C(O)C(O)C2O)ccc1O (stereo not shown) [Isorhamnetin-3-rutinoside]	85 ± 2.1	125 ± 3.9	–	26.2 ± 0.7	25.2 ± 2.9	115 ± 6.2	–	–	–	–	10.0% ± 3.6%
O=C1C[C@@H](c2ccc(O)cc2)Oc2cc(O)cc(O)c21 [Naringenin]	23.3 ± 1.4	95.1 ± 4.5	–	6.2 ± 1.1	–	124 ± 3.5	–	–	–	–	–
Oc1cc(O)c2c(c1)O[C@H](c1ccc(O)c(O)c1)[C@@H](O)C2 [Catechin]	19 ± 1.1	> 167	did not inhibit	14.1 ± 0.8	18.5 ± 2.2	–	–	–	–	–	–

From paper PMC6155811, “Effect of Phenolic Compounds from Elderflowers on Glucose- and Fatty Acid Uptake in Human Myotubes and HepG2-Cells” (Molecules : A Journal of Synthetic Chemistry and Natural …, 2017)
